Experimental data reported in ChEMBL document CHEMBL1201862, “PubChem BioAssay data set” (2004).
Calls of active or inactive are those of the source.

Assays:
[1] = target: T1, Methionyl-tRNA synthetase, putative (Trypanosoma brucei brucei, UniProt Q38C91); format: functional, Trypanosoma brucei brucei strain 927/4 GUTat10.1
T1 sequence (Q38C91 whole entry): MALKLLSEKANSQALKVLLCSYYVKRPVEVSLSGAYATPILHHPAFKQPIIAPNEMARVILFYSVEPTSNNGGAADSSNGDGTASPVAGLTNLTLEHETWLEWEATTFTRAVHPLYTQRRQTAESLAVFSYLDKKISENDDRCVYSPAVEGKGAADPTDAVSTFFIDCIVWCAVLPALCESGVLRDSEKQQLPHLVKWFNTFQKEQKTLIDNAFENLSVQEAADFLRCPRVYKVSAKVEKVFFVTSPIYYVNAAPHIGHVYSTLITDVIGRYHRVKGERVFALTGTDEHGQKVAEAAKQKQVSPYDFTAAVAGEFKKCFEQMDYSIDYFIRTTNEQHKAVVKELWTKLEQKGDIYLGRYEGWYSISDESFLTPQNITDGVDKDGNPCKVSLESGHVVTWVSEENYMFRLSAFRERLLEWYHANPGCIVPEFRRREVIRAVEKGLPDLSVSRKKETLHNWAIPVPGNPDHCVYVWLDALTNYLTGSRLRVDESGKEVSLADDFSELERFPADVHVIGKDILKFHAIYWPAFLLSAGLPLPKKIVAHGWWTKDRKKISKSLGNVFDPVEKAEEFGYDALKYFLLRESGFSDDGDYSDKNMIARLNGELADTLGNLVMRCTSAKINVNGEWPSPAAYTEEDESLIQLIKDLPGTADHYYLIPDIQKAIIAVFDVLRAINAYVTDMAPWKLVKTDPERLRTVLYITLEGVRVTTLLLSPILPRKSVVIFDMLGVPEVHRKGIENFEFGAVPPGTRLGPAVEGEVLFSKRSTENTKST

[2] = Counterscreen for inhibitors of Trypanosoma brucei methionyl tRNA synthetase (MetRS): Luminescence-based cell-based high throughput dose response assay to identify compounds that are cytotoxic to Jurkat human T lymphocyte cells.; format: functional
[3] = target: T1, Methionyl-tRNA synthetase, putative; format: functional, Trypanosoma brucei brucei strain 927/4 GUTat10.1; remark: listed apart in the source
[4] = target: T2, Apoptotic protease-activating factor 1 (Homo sapiens, UniProt O14727); format: functional
T2 sequence (O14727 whole entry): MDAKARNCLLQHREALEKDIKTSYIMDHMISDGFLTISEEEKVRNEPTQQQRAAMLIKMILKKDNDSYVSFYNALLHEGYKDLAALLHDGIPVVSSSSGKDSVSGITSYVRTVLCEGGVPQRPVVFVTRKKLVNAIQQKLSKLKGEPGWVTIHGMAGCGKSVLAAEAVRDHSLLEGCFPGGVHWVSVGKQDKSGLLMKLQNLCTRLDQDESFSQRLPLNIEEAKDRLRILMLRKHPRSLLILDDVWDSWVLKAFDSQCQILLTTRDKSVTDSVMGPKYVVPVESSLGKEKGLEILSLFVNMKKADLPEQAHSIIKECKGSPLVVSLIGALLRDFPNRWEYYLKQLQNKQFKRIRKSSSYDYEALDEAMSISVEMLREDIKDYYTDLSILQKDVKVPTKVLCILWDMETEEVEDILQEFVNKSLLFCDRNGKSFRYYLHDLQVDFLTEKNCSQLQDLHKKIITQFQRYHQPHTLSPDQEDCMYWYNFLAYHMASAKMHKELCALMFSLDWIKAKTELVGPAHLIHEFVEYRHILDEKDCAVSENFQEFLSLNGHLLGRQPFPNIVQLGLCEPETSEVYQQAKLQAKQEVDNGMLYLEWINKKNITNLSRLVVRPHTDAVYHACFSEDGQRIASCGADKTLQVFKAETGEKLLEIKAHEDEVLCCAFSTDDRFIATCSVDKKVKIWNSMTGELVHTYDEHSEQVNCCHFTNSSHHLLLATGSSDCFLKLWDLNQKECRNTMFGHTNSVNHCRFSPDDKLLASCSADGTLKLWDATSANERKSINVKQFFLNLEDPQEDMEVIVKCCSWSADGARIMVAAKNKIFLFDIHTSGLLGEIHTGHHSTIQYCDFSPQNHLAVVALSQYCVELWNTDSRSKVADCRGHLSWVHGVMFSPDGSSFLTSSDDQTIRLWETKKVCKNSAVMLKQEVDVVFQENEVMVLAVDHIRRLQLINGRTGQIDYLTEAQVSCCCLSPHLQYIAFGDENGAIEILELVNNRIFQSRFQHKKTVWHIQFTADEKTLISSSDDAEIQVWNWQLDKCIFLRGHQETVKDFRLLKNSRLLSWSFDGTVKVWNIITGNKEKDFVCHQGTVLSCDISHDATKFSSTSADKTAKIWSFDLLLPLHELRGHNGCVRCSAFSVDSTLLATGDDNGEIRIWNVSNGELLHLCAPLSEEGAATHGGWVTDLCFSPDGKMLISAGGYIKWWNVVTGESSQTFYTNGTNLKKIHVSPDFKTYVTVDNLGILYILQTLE

[5] = target: T3, Adenosylmethionine-8-amino-7-oxononanoate aminotransferase (Mycobacterium tuberculosis, UniProt P9WQ81); assay: Mycobacterium tuberculosis BioA enzyme inhibitor Measured in Biochemical System Using Plate Reader - 2163-02_Inhibitor_Dose_CherryPick_Activity.; format: functional, Mycobacterium tuberculosis UT205
T3 sequence (P9WQ81 whole entry): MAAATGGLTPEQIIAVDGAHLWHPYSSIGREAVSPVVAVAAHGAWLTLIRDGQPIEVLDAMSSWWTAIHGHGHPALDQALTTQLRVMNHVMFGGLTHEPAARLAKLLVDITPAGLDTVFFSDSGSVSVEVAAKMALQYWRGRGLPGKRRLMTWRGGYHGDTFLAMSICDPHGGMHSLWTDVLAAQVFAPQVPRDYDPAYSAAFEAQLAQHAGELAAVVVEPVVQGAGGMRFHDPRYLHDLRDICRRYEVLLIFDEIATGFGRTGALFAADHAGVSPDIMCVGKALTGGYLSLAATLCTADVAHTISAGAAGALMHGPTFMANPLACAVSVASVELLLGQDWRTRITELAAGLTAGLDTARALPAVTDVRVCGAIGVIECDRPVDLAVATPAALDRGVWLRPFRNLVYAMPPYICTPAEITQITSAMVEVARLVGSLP

[6] = target: T4, Protein Tat (Human immunodeficiency virus type 1 group M subtype B (isolate HXB2)(HIV-1), UniProt P04608); format: functional;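 note: tat binding to TAR RNA read out by fluorescence polarization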
T4 sequence (P04608 whole entry): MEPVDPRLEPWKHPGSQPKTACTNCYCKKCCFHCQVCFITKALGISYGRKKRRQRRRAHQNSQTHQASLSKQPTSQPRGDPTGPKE

[7] = target: T5, fMet-Leu-Phe receptor (Homo sapiens, UniProt P21462); assay: formyl peptide receptor binders – dose response (AID 519); format: functional
T5 sequence (P21462 whole entry): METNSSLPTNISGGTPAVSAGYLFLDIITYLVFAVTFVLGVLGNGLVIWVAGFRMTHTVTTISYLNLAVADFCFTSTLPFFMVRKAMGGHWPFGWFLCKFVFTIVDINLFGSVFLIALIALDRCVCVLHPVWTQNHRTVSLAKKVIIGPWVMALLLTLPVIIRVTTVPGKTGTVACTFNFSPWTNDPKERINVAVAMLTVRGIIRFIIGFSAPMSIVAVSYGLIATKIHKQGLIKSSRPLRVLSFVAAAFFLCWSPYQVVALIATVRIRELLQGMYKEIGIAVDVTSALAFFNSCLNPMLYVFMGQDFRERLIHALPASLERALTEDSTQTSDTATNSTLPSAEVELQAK

[8] = tested on: Streptococcus sp. 'group A'; assay: Streptococcus pyogenes SK(-)GAS viability under kanamycin – luminescence, BacTiterGlo, confirmation, counter-screen for streptokinase expression inhibitor project, dose response (AID 1900); format: functional, organism-based
[9] = target: T6, Streptokinase A (Streptococcus pyogenes serotype M1, UniProt P10520); assay: viability-normalized secreted streptokinase activity reduction – plasminogen activation absorbance, OD405, dose response (AID 1914); format: functional, Streptococcus pyogenes M1 GAS;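 note: secreted streptokinase activity via plasminogen activation per viability signal from cell pellet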
T6 sequence (P10520 whole entry): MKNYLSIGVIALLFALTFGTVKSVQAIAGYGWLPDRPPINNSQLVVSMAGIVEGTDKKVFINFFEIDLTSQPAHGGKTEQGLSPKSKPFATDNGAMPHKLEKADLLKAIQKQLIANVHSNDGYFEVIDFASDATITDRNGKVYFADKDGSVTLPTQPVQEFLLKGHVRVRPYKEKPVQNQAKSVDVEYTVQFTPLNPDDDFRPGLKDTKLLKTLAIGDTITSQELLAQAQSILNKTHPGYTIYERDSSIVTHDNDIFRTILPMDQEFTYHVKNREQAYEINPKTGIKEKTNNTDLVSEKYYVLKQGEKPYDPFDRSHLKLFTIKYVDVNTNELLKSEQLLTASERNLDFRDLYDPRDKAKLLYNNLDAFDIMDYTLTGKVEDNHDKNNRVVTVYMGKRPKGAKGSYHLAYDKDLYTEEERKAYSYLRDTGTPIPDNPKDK

[10] = tested on: Streptococcus; assay: GAS UMAA2166 growth inhibition – luminescence, BacTiterGlo, counter-screen for streptokinase expression inhibitor project, dose response (AID 1915); format: functional, organism-based;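 note: potency for reduction of bacterial viability or growth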
[11] = tested on: H9c2; assay: cells; format: functional, cell-based; conditions: Rattus norvegicus, H9c2, Myocardium;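 note: confirmatory concentration-response retest of ultra-high-throughput screening hits for modulation of myocardial damage; cell death induced by hydrogen peroxide oxidative stress; compound pretreatment for 60 min then peroxide exposure for 2 h; potency is for protecting the cells against peroxide damage rather than for killing them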
[12] = target: Albumin (Bos taurus, UniProt P02769); assay: Counterscreen for inhibitors of T-cell receptor (TCR)-CD3 interaction: Fluorescence-based biochemical high throughput dose response assay to identify inhibitors of T-cell receptor (TCR)-CD3 interaction using a TAMRA-labeled BSA probe.; format: functional
[13] = intracellular Trypanosoma cruzi inhibitors in host cells – cell-based, plate reader, cherry-pick samples, set 3, dose response (AID 651818); format: functional;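 note: compounds incubated with infected cells for about four days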
[14] = target: Potassium channel subfamily K member 9 (Homo sapiens, UniProt Q9NPC2); assay: KCNK9 flux blockade, concentration-response – cell-based, FluxOR thallium flux, selectivity assay for TASK1 inhibitor project, SAR follow-up (AID 652211); format: functional;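 note: potency is for inhibitors of the channel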
[15] = target: Cytochrome P450 2C9 (Homo sapiens, UniProt P11712)
[16] = growth inhibition of yeast DHODH-expressing 3D7 parasites – SYBR Green, dry powder samples, dose response (AID 1159570); format: functional, cell-based;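 note: parasite growth measured after 72 hours of compound exposure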
[17] = toxicity to human HepG2 hepatoma cells – cell-based, plate reader, dry powder samples, cytotoxicity control, dose response (AID 1159569); format: functional;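 note: inhibitor potency with signal falling toward the positive control level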
[18] = P. falciparum Dd2 growth inhibitors, dose response, SYBR Green, cherry-picked samples (AID 1159567); format: functional, cell-based
[19] = Dd2 malaria parasite growth inhibition potency – SYBR Green, dry powder samples, dose response (AID 1159566); format: functional, cell-based;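 note: potency for growth inhibition with lower SYBR green DNA signal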
[20] = growth inhibition of PfATP4-mutant resistant parasites – NITD609-resistant line, SYBR Green, dry powder, dose response (AID 1159571); format: functional, cell-based;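 note: parasites synchronized at ring stage by sorbitol before testing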

Albumin, sequence (P02769 whole entry): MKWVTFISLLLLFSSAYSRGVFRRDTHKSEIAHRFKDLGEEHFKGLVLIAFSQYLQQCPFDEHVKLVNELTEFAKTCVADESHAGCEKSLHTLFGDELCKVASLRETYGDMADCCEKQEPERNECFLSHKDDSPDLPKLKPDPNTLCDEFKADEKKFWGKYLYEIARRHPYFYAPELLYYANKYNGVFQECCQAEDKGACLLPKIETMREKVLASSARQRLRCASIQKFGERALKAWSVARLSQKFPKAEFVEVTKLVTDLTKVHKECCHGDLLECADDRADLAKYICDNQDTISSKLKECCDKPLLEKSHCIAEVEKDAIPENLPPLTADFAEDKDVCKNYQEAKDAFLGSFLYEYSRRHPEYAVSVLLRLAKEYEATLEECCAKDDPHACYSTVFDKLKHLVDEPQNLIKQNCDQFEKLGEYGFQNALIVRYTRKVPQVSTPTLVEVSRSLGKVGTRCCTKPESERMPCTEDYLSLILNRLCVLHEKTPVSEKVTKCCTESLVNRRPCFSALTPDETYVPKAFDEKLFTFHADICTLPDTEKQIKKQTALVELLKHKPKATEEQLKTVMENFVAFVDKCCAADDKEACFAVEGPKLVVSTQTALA
Potassium channel subfamily K member 9, sequence (Q9NPC2 whole entry): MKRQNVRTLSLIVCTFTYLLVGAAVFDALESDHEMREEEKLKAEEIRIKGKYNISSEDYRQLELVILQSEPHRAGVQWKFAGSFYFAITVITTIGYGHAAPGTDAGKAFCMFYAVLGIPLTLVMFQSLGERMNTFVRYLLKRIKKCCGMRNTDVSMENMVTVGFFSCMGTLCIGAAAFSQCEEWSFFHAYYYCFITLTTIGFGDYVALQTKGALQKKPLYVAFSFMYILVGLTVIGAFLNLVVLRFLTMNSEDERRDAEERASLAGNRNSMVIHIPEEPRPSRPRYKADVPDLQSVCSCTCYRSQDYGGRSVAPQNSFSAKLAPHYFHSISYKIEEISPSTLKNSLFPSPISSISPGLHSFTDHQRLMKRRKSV
Cytochrome P450 2C9, sequence (P11712 whole entry): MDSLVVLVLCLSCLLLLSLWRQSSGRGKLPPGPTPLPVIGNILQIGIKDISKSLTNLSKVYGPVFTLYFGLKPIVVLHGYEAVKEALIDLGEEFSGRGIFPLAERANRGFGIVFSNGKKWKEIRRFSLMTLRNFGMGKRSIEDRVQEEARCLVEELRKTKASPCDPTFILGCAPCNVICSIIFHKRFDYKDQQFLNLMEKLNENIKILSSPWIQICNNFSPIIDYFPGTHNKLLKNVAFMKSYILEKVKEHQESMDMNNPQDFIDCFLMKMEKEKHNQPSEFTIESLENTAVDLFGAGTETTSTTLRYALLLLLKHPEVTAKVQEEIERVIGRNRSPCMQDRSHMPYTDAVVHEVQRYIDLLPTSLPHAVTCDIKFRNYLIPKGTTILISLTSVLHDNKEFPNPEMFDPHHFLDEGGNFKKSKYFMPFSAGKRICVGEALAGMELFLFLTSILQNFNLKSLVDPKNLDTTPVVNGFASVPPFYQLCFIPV

O=C(COC(=O)CCCOc1ccc(Cl)cc1Cl)NCc1ccccc1
IC50 [1]: 16.4 µM (inactive) | IC50 [2]: 83.3 µM (inactive) | IC50 [3]: 11.3 µM (inactive)

N#Cc1c(N(CCO)CCO)nc(N)c2c(N)nc3c(c12)CC(=O)N3Cc1cccs1
IC50 [4]: 20.7 µM (active)

O=C(Nc1ncc2c(n1)CC(c1cccc(Cl)c1)CC2=O)c1ccco1 (centres undefined)
AC50 [5]: 1.95 µM (active)

CCc1ccc(CC)c(S(=O)(=O)Nc2ccc(C(=O)O)c(O)c2)c1
IC50 [6]: > 100 µM (active)

O=C(NCCCN1CCN(c2ccc(F)cc2)CC1)c1cccc(N2CCCC2=O)c1
Ki [7]: > 66.7 µM (inactive)

COc1cccc(NC(=O)CN(C)CC(=O)Nc2ccc(Br)cc2)c1
IC50 [1]: 13.2 µM (inactive) | IC50 [2]: 83.3 µM (inactive) | IC50 [3]: 51.2 µM (inactive)

Cc1cc(C)c(C)c(S(=O)(=O)N2CCC(C(=O)NNC(=O)c3ccccc3O)CC2)c1C
EC50 [8]: 17 µM (active) | EC50 [9]: > 150 µM (not active) | EC50 [10]: > 150 µM (not active) | IC50 [11]: 31.7 µM (inactive) | IC50 [12]: > 94.1 µM (inactive)

CCOc1ccc(CCNC(=O)c2cnc(C)cn2)cc1OCC
AC50 [5]: 2.54 µM (active)

COc1ccc(-c2nc3oc4cc(OC)ccc4c(=O)c3c(=O)n2Cc2ccco2)cc1
IC50 [6]: > 100 µM (active)

O=C1NC(=S)NC1=Cc1ccco1
IC50 [12]: > 94.1 µM (inactive)

CCc1nc2ccc(Br)cc2c(=O)n1-c1ccccc1C(F)(F)F
AC50 [5]: 0.966 µM (active)

Cc1ccc(S(=O)(=O)N2CCC(C(=O)NNC(=O)c3ccccc3O)CC2)cc1
IC50 [12]: > 94.1 µM (inactive)

C[C@H](CO)N1C[C@H](C)[C@H](CN(C)Cc2ccc(Oc3ccccc3)cc2)Oc2c(NC(=O)Nc3cccc4ccccc34)cccc2C1=O
AC50 [13]: 3.24 µM (active)

C[C@H]1CN([C@@H](C)CO)C(=O)Cc2cc(NC(=O)Nc3ccc(C(F)(F)F)cc3)ccc2O[C@H]1CN(C)Cc1ccc2c(c1)OCO2
AC50 [13]: 4.99 µM (active)

C[C@@H]1CN([C@H](C)CO)C(=O)Cc2cc(NS(=O)(=O)c3cccs3)ccc2O[C@@H]1CN(C)Cc1ccc(C(=O)Nc2ccccc2N)cc1
AC50 [13]: 4.03 µM (active)

CS(=O)(=O)N1[C@H](C(=O)NCc2ccncc2)[C@@H](CO)[C@@H]2Cn3c(ccc(C4=CCCCC4)c3=O)[C@@H]21
AC50 [5]: 6.52 µM (active)

C[C@@H]1CN([C@H](C)CO)C(=O)Cc2cc(NC(=O)Cc3cn(C)c4ccccc34)ccc2O[C@H]1CN(C)Cc1ccc(C(F)(F)F)cc1
AC50 [13]: 3.42 µM (active)

CC(C)Oc1ccccc1C(=O)Nc1cccc(NC(=O)c2ccccc2OC(F)(F)F)c1
IC50 [14]: 70 nM (active)

COc1ccccc1C(=O)Nc1cccc(NC(=O)c2ccccc2C(C)C)c1
IC50 [14]: 740 nM (active)

CCC(CC)C(=O)/N=c1\c2cnn(-c3ccccc3)c2[nH]c(=O)n1-c1ccccc1
Ki [7]: 49.8 µM (inactive) | AC50 [15]: 28.2 µM (inconclusive)

CC(C)CC#Cc1ccc([C@H]2[C@@H](CO)N3C(=O)CN(C(=O)Cc4ccccc4)C[C@H]23)cc1
AC50 [16]: 2.02 µM (active) | AC50 [17]: 26.3 µM (active) | AC50 [18]: 424 nM (active) | AC50 [19]: 836 nM (active) | AC50 [20]: 1.09 µM (active)

Cc1ccccc1S(=O)(=O)N1CC(=O)N2[C@H](CO)[C@H](c3ccc(C#CCC4CCCC4)cc3)[C@H]2C1
AC50 [16]: 1.2 µM (active) | AC50 [17]: 26.5 µM (active) | AC50 [18]: 1900 nM (active) | AC50 [19]: 411 nM (active) | AC50 [20]: 1.42 µM (active)
